Consider 15 molecules from patent publication EP0005219A1, “Arylimidazoles, their synthesis and pharmaceutical or veterinary preparations containing them” (A/S Dumex (Dumex Ltd.), priority 1978, dated 1979).

Data set [1] has as its system mice. The experiment in a line: Writhing test in mice (acetic acid induced writhing), analgesic activity. Type of data set: in vivo. The conditions noted are these: for ED50: Mus musculus, po, 20 min, read-out: Analgesic ED50 Writhing test; for analgesic activity compared with the compounds of the present invention: statement in words, refers to the pharmacological tests of Table 1. Here is the method:
Writhing test in mice. (SPF females of the strain NMRI/BOM, weighing 20-25 g). The test substance was administered by gavage ½ hour prior to an intraperitoneal injection of acetic acid. The number of writhing movements in 20 minutes was counted.

A further data set is described as follows: in vivo. Type of data set: in vivo. Conditions: mouse, in vivo, po, read-out: Acute toxicity LD50.
Data set [2] in a line: Ulcerogenic activity in rats. Conditions: rat, in vivo, po. Here is the method:
SPF males of the strain Sprague-Dawley weighing 180-250 g were used. 5 hours after administration by gavage of the test substance the rats were killed by an overdose of ether. The stomachs were removed and opened along the greater curvature. The number of ulcers was assessed and compared to control rats.

The subject of data set [3] is rats. The experiment in a line: Test for antiinflammatory activity in rats (carrageenin paw). Type of data set: in vivo. The conditions noted are these: Rattus norvegicus, po, read-out: Antiinflam-matory test ED50. Here is the method:
SPF males of the strain Sprague-Dawley, weighing ~ 150 g were used. The test was performed according to Winter et al.: Proc. Soc. […] The test substance was given by gavage 1 hour prior to injection of a carrageenin-suspension into the rat paw.

Data set [4] deals with rats. In words: Randall-Selitto test in rats (analgesia-meter, brewer's yeast paw), analgesic activity. Type of data set: in vivo. The conditions noted are these: Rattus norvegicus, po, read-out: Analgesic ED50 Analgesia-meter. The method, then:
2. Randall-Selitto test in rats. (SPF males of the strain Sprague-Dawley, weighing 90-100 g). The test was performed on the whole as described by Randall and Selitto: Arch. Int. Pharmacodyn. […] An analgesia-meter of the make Ugo Basile was used and the test substance was administered by gavage 2 hours after injection of a suspension of brewer's yeast into the rat paw.

For the next data set, the target named is PG-synthetase. The experiment in a line: Prostaglandin-synthetase inhibition test. Type of data set: biochemical. The conditions noted are these: AA = Arachidonic acid.
Data set [5] concerns mice. In words: in vivo. Type of data set: in vivo. The conditions noted are these: statement in words, refers to the pharmacological data of Table 1.
The mark [6] stands for this setting: mice, by gavage ½ hour prior to intraperitoneal acetic acid, writhing movements in 20 minutes.
The mark [7] stands for this setting: mice, by gavage, observation period 168 hours.
[8] abbreviates: rats, by gavage 1 hour prior to carrageenin injection into the paw.
Where [9] appears, read: rats, by gavage 2 hours after brewer's yeast injection into the paw.
The mark [10] stands for this setting: rats, by gavage, stomachs examined 5 hours after administration, read-out: Ulcerogenic activity ED50.

Where two headings read alike, the source gives them in different places. Where only a bound is given, the exact number is not on record here.

As usually defined, the ED50 is the dose that gives a 50% effect, or the effect in half of the subjects. For orientation: LD50 means the dose at which mortality reaches 50%. On to `COc1ccc(-c2nc(-c3ccc(F)cc3)n(CCC(=O)O)c2-c2ccc(OC)cc2)cc1` [Compound 1, 1-(2-Carboxyethyl)-2-(p-fluorphenyl)-4,5-bis(p-methoxyphenyl)imidazole, reference compound], for which the ED50 with mice [1] (setting [6]) was > 200 mg/kg. Further, in the data set “in vivo” (setting [7]), the LD50 at 168 h is > 2000 mg/kg.

Take `COc1ccc(-c2nc(-c3ccccc3F)[nH]c2-c2ccc(OC)cc2)cc1` [Compound 2, 2-(o-Fluorphenyl)-4,5-bis(p-methoxyphenyl)imidazole]: the TD50 at 5 h in data set [2] stood at 590 mg/kg. Also, the ED50 in the data set with rats [3] (setting [8]) came out at 130 mg/kg; with mice [1] (setting [6]), 15 mg/kg; in the data set with rats [4] (setting [9]), 0.3 mg/kg. Moreover, the LD50 at 168 h in “in vivo” is > 2000 mg/kg.

Turning to `COc1ccc(-c2nc(-c3cccc(F)c3)[nH]c2-c2ccc(OC)cc2)cc1` [Compound 3, 2-(m-Fluorphenyl)-4,5-bis(p-methoxyphenyl)imidazole], the TD50 at 5 h in data set [2] came to 870 mg/kg. In addition, the figures for the ED50 with rats [3] (setting [8]), in the data set on mice [1] (setting [6]) and with rats [4] (setting [9]) were 38 mg/kg, 3.2 mg/kg and 0.25 mg/kg, respectively. Besides, the LD50 at 168 h in “in vivo” is > 2000 mg/kg.

`COc1ccc(-c2nc(-c3ccc(F)cc3)[nH]c2-c2ccc(OC)cc2)cc1` [Compound 4, 2-(p-Fluorphenyl)-4,5-bis(p-methoxyphenyl)imidazole] showed a TD50 at 5 h in data set [2] of 360 mg/kg. Also, the ED50 with rats [3] (setting [8]) is 14 mg/kg; with mice [1] (setting [6]), 5 mg/kg; in the data set with rats [4] (setting [9]) it was 0.3 mg/kg. Moreover, the “Inhibition of PG-synthetase IC50” value at PG-synthetase was 0,18 µg/10 µg AA. Besides, in “in vivo”, the LD50 at 168 h was determined as 1900 mg/kg.

`COc1ccc(-c2nc(-c3cccc(F)c3F)[nH]c2-c2ccc(OC)cc2)cc1` [Compound 5, 2-(2,3-Difluorphenyl)-4,5-bis(p-methoxyphenyl) imidazole]: the TD50 at 5 h in data set [2] was determined as 800 mg/kg. The ED50 is 120 mg/kg with rats [3] (setting [8]), 4.6 mg/kg in the data set with mice [1] (setting [6]) and 0.55 mg/kg in the data set with rats [4] (setting [9]). Moreover, the “Inhibition of PG-synthetase IC50” value at PG-synthetase is recorded as 0,21 µg/10 µg AA. The LD50 at 168 h in the data set “in vivo” was > 2000 mg/kg.

For `COc1ccc(-c2nc(-c3ccc(F)cc3F)[nH]c2-c2ccc(OC)cc2)cc1` [Compound 6, 2-(2,4-Difluorphenyl)-4,5-bis(p-methoxyphenyl)imidazole], the TD50 at 5 h in data set [2] is > 300 mg/kg. Besides, the ED50 is 47 mg/kg in the data set on rats [3] (setting [8]), 4 mg/kg in the data set with mice [1] (setting [6]) and 0.8 mg/kg in the data set on rats [4] (setting [9]). Further, the “Inhibition of PG-synthetase IC50” value at PG-synthetase is 0,27 µg/10 µg AA. In addition, in the data set “in vivo”, the LD50 at 168 h is > 2000 mg/kg.

In turn, `COc1ccc(-c2nc(-c3cc(F)ccc3F)[nH]c2-c2ccc(OC)cc2)cc1` [Compound 7, 2-(2,5-Difluorphenyl)-4,5-bis(p-methoxyphenyl)imidazole] registered a TD50 at 5 h in data set [2] of 1000 mg/kg. Also, the ED50 in the data set with rats [3] (setting [8]) worked out at 110 mg/kg; with mice [1] (setting [6]) it was 16 mg/kg; in the data set with rats [4] (setting [9]), 0.55 mg/kg. In addition, the “Inhibition of PG-synthetase IC50” value on PG-synthetase is listed as 1,71 µg/10 µg AA. Moreover, the LD50 at 168 h in “in vivo” is > 2000 mg/kg.

In the case of `COc1ccc(-c2nc(-c3c(F)cccc3F)[nH]c2-c2ccc(OC)cc2)cc1` [Compound 8, 2-(2,6-Difluorphenyl)-4,5-bis(p-methoxyphenyl)imidazole], the TD50 at 5 h in data set [2] was > 300 mg/kg. Moreover, the ED50 with rats [3] (setting [8]) is 300 mg/kg; with mice [1] (setting [6]), 6.8 mg/kg; with rats [4] (setting [9]), 0.55 mg/kg. Also, the “Inhibition of PG-synthetase IC50” value on PG-synthetase is 0,13 µg/10 µg AA. For the same molecule, in the data set “in vivo”, the LD50 at 168 h is > 2000 mg/kg.

Consider `COc1ccc(-c2nc(-c3ccc(F)c(F)c3)[nH]c2-c2ccc(OC)cc2)cc1` [Compound 9, 2-(3,4-Difluorphenyl)-4,5-bis(p-methoxyphenyl)imidazole], for which the ED50 was 15 mg/kg in the data set with rats [3] (setting [8]) and 1.9 mg/kg in the data set on mice [1] (setting [6]). Also, the LD50 at 168 h in “in vivo” (setting [7]) is > 2000 mg/kg.

For the molecule `COc1ccc(-c2nc(-c3cc(F)cc(F)c3)[nH]c2-c2ccc(OC)cc2)cc1` [Compound 10, 2-(3,5-Difluorphenyl)-4,5-bis(p-methoxyphenyl)imidazole], the TD50 at 5 h in data set [2] is 780 mg/kg. Also, the ED50 in the data set with rats [3] (setting [8]) came to 150 mg/kg; in the data set on mice [1] (setting [6]), 10 mg/kg; with rats [4] (setting [9]), 0.45 mg/kg.

Turning to `COc1ccc(-c2nc(C(F)(F)F)[nH]c2-c2ccc(OC)cc2)cc1` [Compound 11, 2-Trifluormethyl-4,5-bis(p-methoxyphenyl)imidazole, reference compound], the TD50 at 5 h in data set [2] was determined as 450 mg/kg. For the same molecule, the ED50 is 25 mg/kg in the data set with rats [3] (setting [8]) and 75 mg/kg in the data set with mice [1] (setting [6]). In addition, in the data set on mice [1], the “analgesic activity compared with the compounds of the present invention” value was “weaker analgesic activity”. Also, the “toxicity compared with the compounds of the present invention” value in the data set on mice [5] is given as “higher toxicity”.

As for `COc1ccc(-c2nc(C(C)C)[nH]c2-c2ccc(OC)cc2)cc1` [Compound 12, 2-Isopropyl-4,5-bis(p-methoxyphenyl)imidazole, reference compound], the ED50 in the data set on mice [1] (setting [6]) amounted to 200 mg/kg. Besides, the “analgesic activity compared with the compounds of the present invention” value in the data set on mice [1] is on record as “much weaker analgesic activity”. Besides, the median lethal dose (LD50) at 168 h in “in vivo” (setting [7]) was > 2000 mg/kg.

On to `COc1ccc2c(c1)c(CC(=O)O)c(C)n2C(=O)c1ccc(Cl)cc1` [Compound 13, Indomethacin, reference compound], for which, in data set [2] (setting [10]), the TD50 at 5 h was found to be 9.7 mg/kg. Further, the values for the ED50 with rats [3], in the data set with mice [1] and in the data set on rats [4] (2 h) were 28 mg/kg, 8 mg/kg and 0.36 mg/kg, respectively. Moreover, the “Inhibition of PG-synthetase IC50” value on PG-synthetase is on record as 0,65 µg/10 µg AA. Moreover, the LD50 at 168 h in the data set “in vivo” (setting [7]) turned out to be 21 mg/kg.

As to `COc1ccc2cc([C@H](C)C(=O)O)ccc2c1` [Compound 14, Naproxen, reference compound], the TD50 at 5 h in data set [2] (setting [10]) stood at 19.5 mg/kg. Besides, the figures for the ED50 in the data set with rats [3] (setting [8]) and in the data set with rats [4] (setting [9]) were 10 mg/kg and 1.6 mg/kg, respectively. Moreover, on PG-synthetase, the “Inhibition of PG-synthetase IC50” value is 0,49 µg/10 µg AA.

As for `CC(=O)Oc1ccccc1C(=O)O` [Compound 15, Acetyl salicylic acid, reference compound], the TD50 at 5 h in data set [2] (setting [10]) worked out at 340 mg/kg. Further, the ED50 with rats [3] came out at 350 mg/kg; with mice [1], 100 mg/kg. Moreover, the “Inhibition of PG-synthetase IC50” value at PG-synthetase is 7,61 µg/10 µg AA. Further, the LD50 at 168 h in the data set “in vivo” (setting [7]) was 1700 mg/kg.
